Measured values as given in patent US4200631A, “Treating mammalian subject sensitive to indomethacin ulcerogenisis” (priority 1978, dated 1980).

Settings: rat, in vivo, po

Compound: COc1ccc2c(c1)c(CC(=O)O)c(C)n2C(=O)c1ccc(Cl)cc1 [Indomethacin]
- Therapeutical index LD50/ED50 (B): 8.9
